Laboratory results as given in PMC12057046, “Elucidation of short linear motif-based interactions of the MIT and rhodanese domains of the ubiquitin-specific protease 8” (Biology Direct, 2025).
Each block holds one substance with its values, some of them ahead of it.

Experiments:
[1] = biological target: T1, USP8 Rhod domain (Homo sapiens, UniProt P40818); experiment: ProP-PD selection against USP8 Rhod domain; type: binding; conditions: for NGS counts (%): ProP-PD, human disorderome library, GST-tagged Rhod bait, four rounds of selection, Fig. 3A; for max_counts: Total NGS counts; for Counts: fraction of NGS counts for a selection; for Promiscuity: number of baits selections where the peptide has been observed, calculated on the domain level; for Replicates: number of screens against the bait protein in which the peptide has been found; for Specificity: proportion for the current bait of the total NGS read counts of the peptide for all baits screened with this library
T1 construct: USP8 Rhod (174–317) (UniProt: P40818); GST (cleaved yes); made in house; host or cells: Escherichia coli BL21-Gold (DE3)
T1 sequence (P40818 174-317): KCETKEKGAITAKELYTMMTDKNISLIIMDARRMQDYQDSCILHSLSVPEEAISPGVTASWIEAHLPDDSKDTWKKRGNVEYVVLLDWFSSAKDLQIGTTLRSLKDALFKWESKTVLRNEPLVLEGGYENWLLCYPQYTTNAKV
Method: We next evaluated the peptide binding of the Rhod domain by ProP-PD selections. […] (February 2025).
Four rounds of phage selections were carried out using the second generation human disorderome library or the constructed deep mutational scanning library. At least three individual replicates were used for each bait protein. 10 µg of GST-tagged proteins or GST control (diluted in PBS from the stock of proteins kept in the purification elution buffer) were immobilized in 100 µL PBS on a 96-well MaxiSorp (Nunc) plate overnight at 4 °C. The plates were incubated with blocking buffer (with 0.5% BSA in PBS) for 1 h at 4 °C followed by washing with 0.05% Tween 20 in PBS four times. The naïve phage library (10^11 CFU) was diluted in 1/5th volume PEG/NaCl (20% PEG-8000, 0.4 M NaCl) and 1X PBS, incubated on ice for 10 min and centrifuged at 10,000 [drawing 3] g for 10 min. The pellet was resuspended in the volume of PBS (100 µL/ well). The GST-coated control plate was incubated with 100 µL library per well in PBS for 1 h at 4 °C to remove non-specific binders. The supernatant was transferred to the target wells and incubated for 2 h at 4 °C. The wells were washed five times with 0.05% Tween 20 in PBS and the bound phages were eluted with 100 µL per well log-phase E. coli OmniMAX by incubating at 37° C while shaking. After 30 min, M13KO7 helper phages were added and incubated for an additional 45 min. The bacterial cultures were transferred to 1 mL 2YT supplemented with 100 µg/mL carbenicillin, 30 µg/mL kanamycin and 0.3 mM IPTG and grew overnight at 37 °C while shaking. The following day the cultures were centrifuged for 10 min at 2,000 [drawing 4] g, 4 °C. 1/10th volume of 10 [drawing 5] PBS was added to adjust the pH and heated at 65 °C for 10 min. The phage pools from each round were used as in-phages for the next round of selections.
The samples were prepared for NGS as previously described. […] The PCR products were normalized with 25 µL Mag-bind Total Pure NGS beads (Omega Biotek) and 10 µL of each eluted sample (Qiagen Elution Buffer) was pooled and cleaned-up with a PCR purification kit (Qiagen). The PCR product was confirmed by 2% agarose electrophoresis and the band was extracted with QIAquick Gel extraction Kit (Qiagen) and eluted with 30 µL TE buffer. The dsDNA was quantified using QuantiT PicoGreen dsDNA Assay Kit (Thermo Fisher) and sent for NGS (Illumina MiSeq v3, 1 × 150 bp read setup, 20% PhiX, NGI SciLifeLab facility, Sweden). The NGS data were demultiplexed, adapter regions were trimmed and sequences with an average quality of at least 20 were translated to peptide sequences. The NGS data were analysed using custom Python scripts. The total read NGS counts for each selection experiment of each peptide sequence were compiled and annotated in PepTools (https://slim.icr.ac.uk/tools/peptools/). Since ProP-PD is in essence a competition assay, the possibility of the input phage library influencing the selection outcome was explored. […] Pearson correlation coefficient and p-value were calculated using Python’s SciPy library.

[2] = biological target: T1, USP8 Rhod domain; experiment: SPOT array of predicted peptides from known interactors, USP8 Rhod domain; type: binding; conditions: for Percentage (%) normalized to highest intensity and corrected for background: Rhod-Peptide screening, SPOT array of predicted peptides, KIAA1614 positive control = 100; for SPOT intensity in words: GST-tagged Rhod 150 µM, positive control KIAA1614_568 − 583, array of 42 predicted peptides
From the text: The results therefore support that the USP8 Rhod domain binds to two distinct types of motifs (Fig. 4A, B). We used the motifs to scan for matching motifs in previously reported interactors using the SLiMSearch algorithm (Supplementary Table S8 A). As there was no clear match for the TET3-type motif except from only one hit, we focused on the KIAA1614-type motif. […] Both TP63 and USP21 are previously reported USP8 substrates, and the interactions may potentially contribute to substrate targeting. […] As the SHANK3 peptides (351-[…]−365 and 392-[…]−406) are closely located in the primary structure of SHANK3, it is tempting to speculate that both motifs contribute to the interactions between the full-length proteins by increasing the local concentration of binding motifs. […] Taken together, we find that the USP8 Rhod domain is a peptide binding domain that can be bound by peptides of two distinct types of motifs, with the Rx[LI]xGxxxPxxL motif and variants thereof being found in known USP8 substrates.
SPOT array alanine scanning of peptides was designed, and cellulose-bound peptides were synthesized using Fluorenylmethyloxycarbonyl (Fmoc) solid phase synthesis with a MultiPep synthesizer (INTAVIS Peptide Services, Tübingen, Germany). The membranes of predicted peptides were purchased by JPT Peptide Technologies (Berlin, Germany). The membranes were incubated with blocking buffer containing 5% skim milk in TBST (50 mM Tris, 150 mM NaCl pH 7.5, 0.05% Tween-20) for two hours at room temperature. The blocked membranes were incubated with GST-tagged proteins (100 µM for MIT domain and 150 µM for the Rhodanese domain) in blocking buffer overnight at 4 °C. After rinsed with TBST the membranes were incubated with HRP-conjugated anti-GST antibody (Cytiva, RPN1236; 1:3000 dilution) in blocking buffer for 1 h at 4 °C and subsequently rinsed with TBST to remove any excess antibody. The ECL reagent (Clarity Max Western ECL substrate, 1705062, BioRad) was used for chemiluminescence read-out with the ChemiDoc Imaging system (BioRad). The images were analysed with Fiji (ImageJ2 version 2.9.0). SLiMSearch4 was used to design the peptide arrays with known interactors predicted to contain the motifs. The background signal intensity was subtracted, and the corrected signal intensities were normalized to the positive control and presented as percentage.

Substance: HIWHYDEEYLPDASKP [TTBK2, Tau-tubulin kinase 2 peptide 503-518]
NGS counts (%) [1]: 0.06% | max_counts [1]: 76 | Counts [1]: 0.0007473 | Promiscuity [1]: 7 | Replicates [1]: 2 | Specificity [1]: 0.5152

Substance: MPSGSRLRLVELGLGL [Random KIAA1614 Negative control]
Percentage (%) normalized to highest intensity and corrected for background [2]: 3.69%

Substance: PEKGARSLAGPPPHF
Percentage (%) normalized to highest intensity and corrected for background [2]: -1.37%

Substance: PGPPYPPQLMTPSKL
Percentage (%) normalized to highest intensity and corrected for background [2]: -0.836%

Substance: PKPPRPASLLRHAPH
Percentage (%) normalized to highest intensity and corrected for background [2]: 5%

Substance: PRPTAPKPLLPRREE
Percentage (%) normalized to highest intensity and corrected for background [2]: 0.0399%

Substance: PVYSRPTVLMRAPPA
Percentage (%) normalized to highest intensity and corrected for background [2]: 4.31%

Substance: QPNHGLALWEAKMKQL [TET3 1701-1716, Methylcytosine dioxygenase TET3 peptide, overlapping]
max_counts [1]: 7 | Counts [1]: 0.00009459587683709846 | Promiscuity [1]: 2 | Replicates [1]: 3 | Specificity [1]: 0.8889

Substance: QPVYSSPRRLNCAE
Percentage (%) normalized to highest intensity and corrected for background [2]: 17%

Substance: RALLERCLKGEGEIE
Percentage (%) normalized to highest intensity and corrected for background [2]: 2%

Substance: SCISEWEQKIPTYN
Percentage (%) normalized to highest intensity and corrected for background [2]: 6%

Substance: SLASVRGLQGRSMSV
Percentage (%) normalized to highest intensity and corrected for background [2]: 5%

Substance: SPARSSPELLPSGV
Percentage (%) normalized to highest intensity and corrected for background [2]: 1.56%

Substance: SPEKSSPQALVPNG
Percentage (%) normalized to highest intensity and corrected for background [2]: 1%

Substance: SPLGRPESLLQSNTL
Percentage (%) normalized to highest intensity and corrected for background [2]: -0.544%

Substance: SRSLSPTRLLSLPPD
Percentage (%) normalized to highest intensity and corrected for background [2]: 6.64%

Substance: SSNSHRSLDGLSRTQ
Percentage (%) normalized to highest intensity and corrected for background [2]: 5.49%

Substance: SSTSTRHLQGVEFEM
Percentage (%) normalized to highest intensity and corrected for background [2]: -1.73%

Substance: SYAKRRRLAGPSGLA
Percentage (%) normalized to highest intensity and corrected for background [2]: 7%

Substance: TASSLPRKLLPWEEG
Percentage (%) normalized to highest intensity and corrected for background [2]: -1.1%

Substance: TGLTVPPALLRANSD
Percentage (%) normalized to highest intensity and corrected for background [2]: -1.11%

Substance: YDTLIIRDYTQSSSSL [GRM5, Metabotropic glutamate receptor 5 peptide 1197-1212]
NGS counts (%) [1]: 0.02% | max_counts [1]: 23 | Counts [1]: 0.0001477 | Promiscuity [1]: 4 | Replicates [1]: 2 | Specificity [1]: 0.5417

Further lines, results first:

NGS counts (%) [1]: 0.58% | max_counts [1]: 421 | Counts [1]: 0.006181 | Promiscuity [1]: 6 | Replicates [1]: 3 | Specificity [1]: 0.9228
Substance: LMNFLGDSNPFNLLRM [BCL11B, B-cell lymphoma/leukemia 11B peptide 279-294]

Percentage (%) normalized to highest intensity and corrected for background [2]: -1.42%
Substance: PIPSSSPPPLSSPL

SPOT intensity in words [2]: Weaker signals
Substance: RAB3IP82 − 95: SSPxxL containing peptide from the RAB3A interacting protein (QPVYSSPRRLNCAE)

Percentage (%) normalized to highest intensity and corrected for background [2]: 39%
Substance: SLRRLGGFPGPPTLFS

Percentage (%) normalized to highest intensity and corrected for background [2]: 7%
Substance: SLRSLPHQLLLQRLQ

SPOT intensity in words [2]: Weaker signals
Substance: SLRSLPHQLLLQRLQ [SHANK3 peptide]

Percentage (%) normalized to highest intensity and corrected for background [2]: 9%
Substance: SQLPSSPAQLSCRS

Percentage (%) normalized to highest intensity and corrected for background [2]: 1.45%
Substance: SWAAGPGSLLAWLIL

SPOT intensity in words [2]: Weaker signals
Substance: SYAKRRRLAGPSGLA [SHANK3 peptide]

Percentage (%) normalized to highest intensity and corrected for background [2]: 6%
Substance: TRKFSSPPPLSITK
